Among the data in patent US11820766B2, “Monoacylglycerol lipase modulators” (Janssen Pharmaceutica NV, priority 2018, dated 2023) are IC50 values, retold here.

pIC50: −log10 of the molar value.

One test has as its target T1, human MGL from HeLa cells (Homo sapiens, UniProt Q99685).
T1 construct: combining endogenously expressed MGL from HeLa cells with test compounds; endogenous in cells; host or cells: HeLa cells / cell homogenates
T1 sequence (Q99685 1-303): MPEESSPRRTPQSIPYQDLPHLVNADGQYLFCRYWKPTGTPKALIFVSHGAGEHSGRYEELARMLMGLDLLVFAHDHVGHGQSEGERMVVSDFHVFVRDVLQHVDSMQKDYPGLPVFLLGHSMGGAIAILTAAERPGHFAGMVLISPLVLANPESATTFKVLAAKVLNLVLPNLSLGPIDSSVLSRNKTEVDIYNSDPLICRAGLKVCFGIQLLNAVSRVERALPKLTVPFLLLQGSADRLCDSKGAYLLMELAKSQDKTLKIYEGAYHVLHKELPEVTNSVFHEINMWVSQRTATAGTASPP
Put plainly: In vitro MGL activity assay: [glycerol-1,3-3H]-oleyl glycerol cleavage by MGL from HeLa cells. Type of test: biochemical. To be noted: 300 nM [Glycerol-1,3-3H]-oleyl glycerol, one hour. An excerpt:
MGL is the predominant hydrolase in HeLa cells/cell homogenates.
`Cc1nc2ncccn2c1C(=O)N1CCc2c(nn(C)c2-c2cc(F)c(F)c(F)c2)[C@@H]1C` [Example 458, [(7S)-2,7-Dimethyl-3-(3,4,5-trifluorophenyl)-5,7-dihydro-4H-pyrazolo[3,4-c]pyridin-6-yl]-(2-methylimidazo[1,2-a]pyrimidin-3-yl)methanone] gave a pIC50 of 6.79.
Same read-out and setting: as for `Cc1cnn2nc(C3CC3)c(C(=O)N3CCc4c(nn(C)c4-c4cc(F)c(F)c(F)c4)[C@@H]3C)c2c1` [Example 445, (2-Cyclopropyl-5-methyl-pyrazolo[1,5-b]pyridazin-3-yl)-[(7S)-2,7-dimethyl-3-(3,4,5-trifluorophenyl)-5,7-dihydro-4H-pyrazolo[3,4-c]pyridin-6-yl]methanone], the figure is 6.28.
Same read-out and setting: the same measure for `Cc1nc(C(=O)N2CCc3c(nn(C)c3-c3cc(F)c(F)c(F)c3)[C@@H]2C)c2ncccn12` [Example 460, [(7S)-2,7-Dimethyl-3-(3,4,5-trifluorophenyl)-5,7-dihydro-4H-pyrazolo[3,4-c]pyridin-6-yl]-(6-methylimidazo[1,5-a]pyrimidin-8-yl)methanone]: 6.28; for `C[C@H]1c2nn(C)c(-c3cc(F)c(F)c(F)c3)c2CCN1C(=O)c1cccc2cnccc12` [Example 543, [(7S)-2,7-Dimethyl-3-(3,4,5-trifluorophenyl)-5,7-dihydro-4H-pyrazolo[3,4-c]pyridin-6-yl]-(5-isoquinolyl)methanone]: 8.31; for `C[C@H]1c2nn(C)c(-c3cc(F)c(F)c(F)c3)c2CCN1C(=O)c1ccnc2ncccc12` [Example 491, [(7S)-2,7-Dimethyl-3-(3,4,5-trifluorophenyl)-5,7-dihydro-4H-pyrazolo[3,4-c]pyridin-6-yl]-(1,8-naphthyridin-4-yl)methanone]: 6.85.
The same measure, in the same setting: the same measure for `C[C@H]1c2nn(C)c(-c3cccc4c3OC(F)(F)O4)c2CCN1C(=O)c1ccc2ncccc2c1` [Example 542, [(7S)-3-(2,2-Difluoro-1,3-benzodioxol-4-yl)-2,7-dimethyl-5,7-dihydro-4H-pyrazolo[3,4-c]pyridin-6-yl]-(6-quinolyl)methanone]: 7.09.
Molecule `Cc1[nH]c2ncccc2c1C(=O)N1CCc2c(nn(C)c2-c2cc(F)c(F)c(F)c2)[C@@H]1C` [Example 375, [(7S)-2,7-Dimethyl-3-(3,4,5-trifluorophenyl)-5,7-dihydro-4H-pyrazolo[3,4-c]pyridin-6-yl]-(2-methyl-1H-pyrrolo[2,3-b]pyridin-3-yl)methanone] showed a pIC50 of 7.52. This pIC50 is 0.43 log units higher than that of the molecule before.
Still for that read-out and setting: as for `C[C@H]1c2nn(C)c(-c3cc(F)c(F)c(F)c3)c2CCN1C(=O)c1cnn(C)c1C1CC1(F)F` (single isomer, unassigned) [Example 337, (5-((R*)-2,2-difluorocyclopropyl)-1-methyl-1H-pyrazol-4-yl)((S)-2,7-dimethyl-3-(3,4,5-trifluorophenyl)-2,4,5,7-tetrahydro-6H-pyrazolo[3,4-c]pyridin-6-yl)methanone], the figure is 8.09.

The same test, now with this note: 300 nM [Glycerol-1,3-3H]-oleyl glycerol, one hour incubation.
The molecule `C[C@H]1c2nn(C)c(-c3cc(F)c(F)c(F)c3)c2CCN1C(=O)c1noc2ccccc12` [Example 215, (S)-Benzo[d]isoxazol-3-yl(2,7-dimethyl-3-(3,4,5-trifluorophenyl)-2,4,5,7-tetrahydro-6H-pyrazolo[3,4-c]pyridin-6-yl)methanone] gave a pIC50 of 8.50.
Same read-out and setting: as for `C[C@H]1c2nn(C)c(-c3cc(F)c(F)c(F)c3)c2CCN1C(=O)c1cn(C)c2ccncc12` [Example 219, (S)-(2,7-Dimethyl-3-(3,4,5-trifluorophenyl)-2,4,5,7-tetrahydro-6H-pyrazolo[3,4-c]pyridin-6-yl)(1-methyl-1H-pyrrolo[3,2-c]pyridin-3-yl)methanone], the figure is 7.54; as for `C[C@H]1c2nn(C)c(-c3cc(F)cc(F)c3)c2CCN1C(=O)c1cc(F)cc(OCCF)c1` [Example 143, (S)-(3-(3,5-Difluorophenyl)-2,7-dimethyl-2,4,5,7-tetrahydro-6H-pyrazolo[3,4-c]pyridin-6-yl)(3-fluoro-5-(2-fluoroethoxy)phenyl)methanone], 8.38.
As for `Cn1nc2c(c1-c1ccccc1)CCN(C(=O)c1cc3[nH]ccc3s1)C2` [Example 31, (2-Methyl-3-phenyl-2,4,5,7-tetrahydro-6H-pyrazolo[3,4-c]pyridin-6-yl)(4H-thieno[3,2-b]pyrrol-2-yl)methanone], the pIC50 was 5.91.
The same measure, in the same setting: as for `C[C@H]1c2nn(C)c(-c3cc(F)c(F)c(F)c3)c2CCN1C(=O)c1cnn(C(C)(C)C)c1C(F)(F)F` [Example 199, (S)-(1-(tert-Butyl)-5-(trifluoromethyl)-1H-pyrazol-4-yl)(2,7-dimethyl-3-(3,4,5-trifluorophenyl)-2,4,5,7-tetrahydro-6H-pyrazolo[3,4-c]pyridin-6-yl)methanone], the figure is 6.77.
On the same count and under the same terms, the same measure for `C[C@@H]1c2nn(C)c(-c3cc(F)cc(Cl)c3)c2CCN1C(=O)c1ccc2nccnc2c1` [Example 182, (R)-(3-(3-Chloro-5-fluorophenyl)-2,7-dimethyl-2,4,5,7-tetrahydro-6H-pyrazolo[3,4-c]pyridin-6-yl)(quinoxalin-6-yl)methanone]: under 5.00; for `Cn1nc2c(c1-c1ccccc1)CCN(C(=O)c1ccn3nccc3c1)C2` [Example 73, (2-Methyl-3-phenyl-2,4,5,7-tetrahydro-6H-pyrazolo[3,4-c]pyridin-6-yl)(pyrazolo[1,5-a]pyridin-5-yl)methanone]: 5.60.
Still for that read-out and setting: the same measure for `Cn1nc2c(c1-c1ccccc1)CCN(C(=O)c1cncc3ccccc13)C2` [Example 87, Isoquinolin-4-yl(2-methyl-3-phenyl-2,4,5,7-tetrahydro-6H-pyrazolo[3,4-c]pyridin-6-yl)methanone]: 7.40; for `Cc1nc(C(=O)N2CCc3c(nn(C)c3-c3cc(F)c(F)c(F)c3)[C@@H]2C)nn1-c1ccc(F)cc1` [Example 322, [(7S)-2,7-Dimethyl-3-(3,4,5-trifluorophenyl)-5,7-dihydro-4H-pyrazolo[3,4-c]pyridin-6-yl]-[1-(4-fluorophenyl)-5-methyl-1,2,4-triazol-3-yl]methanone]: 7.46.
Turning to `COc1ccc(C(=O)N2CCc3c(nn(C)c3-c3cc(F)c(F)c(F)c3)[C@@H]2C)cc1` [Example 261, [(7S)-2,7-Dimethyl-3-(3,4,5-trifluorophenyl)-5,7-dihydro-4H-pyrazolo[3,4-c]pyridin-6-yl]-(4-methoxyphenyl)methanone], the pIC50 is 7.53.
The same measure, in the same setting: as for `C[C@H]1c2nn(C)c(-c3cc(F)c(F)c(F)c3)c2CCN1C(=O)c1ccnc2c(F)cccc12` [Example 238, (S)-(2,7-Dimethyl-3-(3,4,5-trifluorophenyl)-2,4,5,7-tetrahydro-6H-pyrazolo[3,4-c]pyridin-6-yl)(8-fluoroquinolin-4-yl)methanone], the figure is 8.57.
The same measure, in the same setting: as for `C[C@H]1c2nn(C)c(-c3cc(F)c(F)c(F)c3)c2CCN1C(=O)c1cccn2cncc12` [Example 212, (S)-(2,7-Dimethyl-3-(3,4,5-trifluorophenyl)-2,4,5,7-tetrahydro-6H-pyrazolo[3,4-c]pyridin-6-yl)(imidazo[1,5-a]pyridin-8-yl)methanone], the figure is 8.25; as for `C[C@H]1c2nn(C)c(-c3cc(F)c(F)c(F)c3)c2CCN1C(=O)c1cnn(C)c1C1CC1` [Example 201, (S)-(5-Cyclopropyl-1-methyl-1H-pyrazol-4-yl)(2,7-dimethyl-3-(3,4,5-trifluorophenyl)-2,4,5,7-tetrahydro-6H-pyrazolo[3,4-c]pyridin-6-yl)methanone], 8.20.
`CC1c2nn(C)c(-c3cccc(Cl)c3)c2CCN1C(=O)c1cnc2ccoc2c1` (racemic) [Example 126, (3-(3-Chlorophenyl)-2,7-dimethyl-2,4,5,7-tetrahydro-6H-pyrazolo[3,4-c]pyridin-6-yl)(furo[3,2-b]pyridin-6-yl)methanone] gave a pIC50 of 6.89. Compared with the last molecule, the pIC50 is 1.31 log units lower.
Still for that read-out and setting: the same measure for `Cc1cnc2cc(C(=O)N3CCc4c(nn(C)c4-c4cc(Cl)cc(Cl)c4)[C@@H]3C)ccc2n1` [Example 176, (S)-(3-(3,5-Dichlorophenyl)-2,7-dimethyl-2,4,5,7-tetrahydro-6H-pyrazolo[3,4-c]pyridin-6-yl)(2-methylquinoxalin-6-yl)methanone]: 8.07; for `COc1cccc(C(=O)N2CCc3c(nn(C)c3-c3cc(F)c(F)c(F)c3)[C@@H]2C)c1Cl` [Example 191, (S)-(2-Chloro-3-methoxyphenyl)(2,7-dimethyl-3-(3,4,5-trifluorophenyl)-2,4,5,7-tetrahydro-6H-pyrazolo[3,4-c]pyridin-6-yl)methanone]: 8.59; for `Cn1nc2c(c1-c1ccccc1)CCN(C(=O)c1cccc(OC(F)(F)F)c1F)C2` [Example 4, (2-Fluoro-3-(trifluoromethoxy)phenyl)(2-methyl-3-phenyl-2,4,5,7-tetrahydro-6H-pyrazolo[3,4-c]pyridin-6-yl)methanone]: 6.36.
The same measure, in the same setting: the same measure for `C[C@H]1c2nn(C)c(-c3cc(Cl)cc(Cl)c3)c2CCN1C(=O)c1nn(C)c2ncccc12` [Example 173, (S)-(3-(3,5-Dichlorophenyl)-2,7-dimethyl-2,4,5,7-tetrahydro-6H-pyrazolo[3,4-c]pyridin-6-yl)(1-methyl-1H-pyrazolo[3,4-b]pyridin-3-yl)methanone]: 7.74; for `COc1ccc(C(=O)N2CCc3c(nn(C)c3-c3cc(F)c(F)c(F)c3)[C@@H]2C)nc1` [Example 301, [(7S)-2,7-Dimethyl-3-(3,4,5-trifluorophenyl)-5,7-dihydro-4H-pyrazolo[3,4-c]pyridin-6-yl]-(5-methoxy-2-pyridyl)methanone]: 6.61.

By pIC50 is commonly meant the IC50 on a negative log10 scale, so that one unit is a factor of ten. A high value points to a small IC50.
